Results taken from patent publication US11021518B2, “Theta defensin analogs” (The University of Southern California, priority 2019, dated 2021).
Bridge positions count the residues as written; N and C are the ends. Peptide text beside a SMILES is read from it.

Assays:
[1] = tested on: carbapenem resistant strain of Klebsiella pneumoniae (KPC+-Kp BAA-1705 (ATCC)); test: murine carbapenem resistant Klebsiella pneumoniae sepsis model, survival; format: in vivo, BALB/c mice; conditions: for Kp sepsis % survival at 5 mg/kg: BALB/c mice, i.p. infection, peptide 5 mg/kg i.p. 1 hour post infection; for survival (FIG. 3 right panel): 0.5 mg/kg i.p. 1 hour post infection; for survival (FIG. 3 left panel): 5 mg/kg i.p. 1 hour post infection, sham controls 25% survival; for therapeutic effect on survival (FIG. 4): 1 hour post infection
Method: BALB/c mice were infected interperitoneally with 3-5×10^8 CFU of a carbapenem resistant strain of Klebsiella pneumoniae (KPC+-Kp BAA-1705 (ATCC)) and treated with peptide one hour post infection. […] P-values were determined by Fisher's exact test. The therapeutic peptides were provided intraperitoneally 1 hour after induction of sepsis.
BALB/c mice were infected i.p. with KPC+-Kp BAA-1705 (ATCC) and treated with a single dose of MTD12813, at the levels indicated, 1 hour post infection. The significance (P-values determined by Fisher's exact test) of the therapeutic effect for each dose is shown. […] It should be appreciated that 0.5 mg/kg is the lowest dose tested, and that Inventors believe that MTD12813 is effective at still lower doses, for example down to 0.25 mg/kg, […], or 10 μg/kg.

[2] = tested on: TNF-α (TNF) release; test: suppression of TNF-α (TNF) release; format: cell-based
[3] = target: TACE (Homo sapiens, UniProt P78536); test: inhibition of TACE; format: biochemical
TACE, sequence (P78536 215-824): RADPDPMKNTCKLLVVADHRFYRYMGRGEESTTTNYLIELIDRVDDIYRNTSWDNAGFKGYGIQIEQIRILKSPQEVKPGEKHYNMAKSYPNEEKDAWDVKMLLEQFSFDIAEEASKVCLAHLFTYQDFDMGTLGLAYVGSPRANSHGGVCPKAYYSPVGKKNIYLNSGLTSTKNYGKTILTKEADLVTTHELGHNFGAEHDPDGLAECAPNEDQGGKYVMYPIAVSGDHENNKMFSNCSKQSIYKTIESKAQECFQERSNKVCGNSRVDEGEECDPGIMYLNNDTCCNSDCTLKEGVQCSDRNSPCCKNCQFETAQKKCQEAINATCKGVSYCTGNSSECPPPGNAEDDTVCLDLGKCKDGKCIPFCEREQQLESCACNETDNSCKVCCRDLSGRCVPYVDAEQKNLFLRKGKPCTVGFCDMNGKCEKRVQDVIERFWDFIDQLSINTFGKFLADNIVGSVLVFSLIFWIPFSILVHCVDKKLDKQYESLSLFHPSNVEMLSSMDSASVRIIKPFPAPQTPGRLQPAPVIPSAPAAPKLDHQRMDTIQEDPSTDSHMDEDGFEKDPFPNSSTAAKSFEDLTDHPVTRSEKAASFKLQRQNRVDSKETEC

Molecule | Kp sepsis % survival at 5 mg/kg [1] | TNF % suppression at 5 mg/kg [2] [%] | IC50 [3] [nM] | survival (FIG. 3 right panel) [1] | survival (FIG. 3 left panel) [1] | therapeutic effect on survival (FIG. 4) ([1]; single dose 0.5 mg/kg, lowest dose tested) | therapeutic effect on survival (FIG. 4) ([1]; single dose 1.25 mg/kg)
CC(C)C[C@@H]1NC(=O)[C@@H]2CSSC[C@H](NC(=O)[C@H](CO)NC(=O)[C@@H]3CSSC[C@H](NC1=O)C(=O)N[C@@H](CCCNC(=N)N)C(=O)N[C@@H](CCCNC(=N)N)C(=O)NCC(=O)N[C@@H](C(C)C)C(=O)N3)C(=O)N[C@@H](CCCNC(=N)N)C(=O)N[C@@H](CCCNC(=N)N)C(=O)N[C@@H](CCCNC(=N)N)C(=O)N[C@@H](Cc1ccccc1)C(=O)N2 [MTD12810] (cyclo(CLCRRGVCSCRRRF); disulfide 1-10, 3-8) | 0% | 2.0 | 1540 |  |  |  | 
CC[C@H](C)[C@@H]1NC(=O)[C@@H]2CSSC[C@H](NC(=O)[C@H](CC(C)C)NC(=O)[C@@H]3CSSC[C@H](NC1=O)C(=O)N[C@@H](CCCNC(=N)N)C(=O)N[C@@H](CCCNC(=N)N)C(=O)N[C@@H](CCCNC(=N)N)C(=O)N[C@@H](Cc1ccccc1)C(=O)N3)C(=O)N[C@@H](CCCNC(=N)N)C(=O)N[C@@H](CCCNC(=N)N)C(=O)NCC(=O)N[C@@H](C(C)C)C(=O)N2 [MTD1280] (cyclo(CICRRRFCLCRRGV); disulfide 1-10, 3-8) | 80-100% | 98.7 | 1280 | essentially identical to that of the sham control |  |  | 
CC[C@H](C)[C@@H]1NC(=O)[C@@H]2CSSC[C@H](NC(=O)[C@H](CC(C)C)NC(=O)[C@@H]3CSSC[C@H](NC1=O)C(=O)N[C@@H](CCCNC(=N)N)C(=O)N[C@@H](CCCNC(=N)N)C(=O)N[C@@H](CCCNC(=N)N)C(=O)N[C@@H](Cc1ccccc1)C(=O)N3)C(=O)N[C@@H](CCCNC(=N)N)C(=O)N[C@@H](CCCNC(=N)N)C(=O)NCC(=O)N[C@@H](C)C(=O)N2 [MTD1286] (cyclo(ACICRRRFCLCRRG); disulfide 2-11, 4-9) |  |  | 305 |  |  |  | 
CC[C@H](C)[C@@H]1NC(=O)[C@@H]2CSSC[C@H](NC(=O)[C@H](CO)NC(=O)[C@@H]3CSSC[C@H](NC1=O)C(=O)N[C@@H](CCCNC(=N)N)C(=O)N[C@@H](CCCNC(=N)N)C(=O)NCC(=O)N[C@@H](C(C)C)C(=O)N3)C(=O)N[C@@H](CCCNC(=N)N)C(=O)N[C@@H](CCCNC(=N)N)C(=O)N[C@@H](CCCNC(=N)N)C(=O)N[C@@H](Cc1ccccc1)C(=O)N2 [MTD12811] (cyclo(CICRRGVCSCRRRF); disulfide 1-10, 3-8) | 30% | 37.5 | 1890 |  |  |  | 
CC[C@H](C)[C@@H]1NC(=O)[C@@H]2CSSC[C@H](NC(=O)[C@H](CO)NC(=O)[C@@H]3CSSC[C@H](NC1=O)C(=O)N[C@@H](CCCNC(=N)N)C(=O)N[C@@H](CCCNC(=N)N)C(=O)N[C@@H](CCCNC(=N)N)C(=O)N[C@@H](Cc1ccccc1)C(=O)N3)C(=O)N[C@@H](CCCNC(=N)N)C(=O)N[C@@H](CCCNC(=N)N)C(=O)NCC(=O)N[C@@H](C(C)C)C(=O)N2 [MTD12812] (cyclo(CICRRRFCSCRRGV); disulfide 1-10, 3-8) | 20% | 14.9 | 1100 |  |  |  | 
RTD-1: naturally occurring rhesus monkey θ-defensin, cyclic octadecapeptide with 3 disulfide bonds (cyclo(GFCRCLCRRGVCRCICTR); disulfide (positions not given here); not fully specified (bridges); also: three disulfide bonds, pairing not given here; listed as Macaca mulatta) [reference compound] |  |  |  |  | 70% |  | 
CC[C@H](C)[C@@H]1NC(=O)[C@@H]2CSSC[C@H](NC(=O)[C@H]([C@@H](C)CC)NC(=O)[C@@H]3CSSC[C@H](NC1=O)C(=O)NCC(=O)N[C@@H](CCCNC(=N)N)C(=O)NCC(=O)N[C@@H](C(C)C)C(=O)N3)C(=O)N[C@@H](CCCNC(=N)N)C(=O)N[C@@H](CCCNC(=N)N)C(=O)N[C@@H](CCCNC(=N)N)C(=O)N[C@@H](C(C)C)C(=O)N2 [MTD12813] (cyclo(CGRGVCICRRRVCI); disulfide 1-6, 8-13) | 100% | 95.6 | 546 | ~90% | complete protection | highly effective | as effective as 5 mg/kg
CC[C@H](C)[C@@H]1NC(=O)[C@@H]2CSSC[C@H](NC(=O)[C@H]([C@@H](C)CC)NC(=O)[C@@H]3CSSC[C@H](NC1=O)C(=O)N[C@@H](CCCNC(=N)N)C(=O)N[C@@H](CCCNC(=N)N)C(=O)NCC(=O)N[C@@H](C(C)C)C(=O)N3)C(=O)N[C@@H](CCCNC(=N)N)C(=O)N[C@@H](CCCNC(=N)N)C(=O)NCC(=O)N[C@@H](C(C)C)C(=O)N2 [MTD1281] (cyclo(CICRRGVCICRRGV); disulfide 1-10, 3-8) | 40% | 83.0 | 347 |  |  |  | 
CC(C)[C@@H]1NC(=O)CNC(=O)[C@H](CCCNC(=N)N)NC(=O)[C@H](CCCNC(=N)N)NC(=O)[C@@H]2CSSC[C@H](NC1=O)C(=O)N[C@@H](C)C(=O)N[C@H]1CSSC[C@H](NC(=O)[C@H](Cc3ccccc3)NC(=O)[C@H](CCCNC(=N)N)NC(=O)[C@H](CCCNC(=N)N)NC(=O)[C@H](C)NC1=O)C(=O)N[C@@H](C)C(=O)N2 [MTD12815] (cyclo(ACARRFCACRRGVC); disulfide 2-7, 9-14) |  |  | 1180 |  |  |  | 
CC(C)C[C@@H]1NC(=O)[C@@H]2CSSC[C@H](NC(=O)[C@H](CC(C)C)NC(=O)[C@@H]3CSSC[C@H](NC1=O)C(=O)N[C@@H](CCCNC(=N)N)C(=O)N[C@@H](CCCNC(=N)N)C(=O)NCC(=O)N[C@@H](C(C)C)C(=O)N3)C(=O)N[C@@H](CCCNC(=N)N)C(=O)N[C@@H](CCCNC(=N)N)C(=O)NCC(=O)N[C@@H](C(C)C)C(=O)N2 [MTD1284] (cyclo(CLCRRGVCLCRRGV); disulfide 1-10, 3-8) | 53.3% | 78.8 | 732 |  |  |  | 
CC(C)[C@@H]1NC(=O)CNC(=O)[C@H](CCCNC(=N)N)NC(=O)[C@H](CCCNC(=N)N)NC(=O)[C@@H]2CSSC[C@H](NC1=O)C(=O)N[C@@H](C)C(=O)N[C@H]1CSSC[C@H](NC(=O)[C@H](Cc3ccccc3)NC(=O)[C@H](CCCNC(=N)N)NC(=O)[C@H](CCCNC(=N)N)NC(=O)[C@H](CCCNC(=N)N)NC1=O)C(=O)N[C@@H](C)C(=O)N2 [MTD1289] (cyclo(ACRRGVCACRRRFC); disulfide 2-7, 9-14) |  |  | 1670 |  |  |  | 
